In patent US10017463B2, “Inhibitors of deubiquitinating proteases” (Brandeis University, priority 2014, dated 2018):

Tests used:
K48-linked ubiquitin = K48-linked ubiquitin immunoblot in BaF3/p210 cells; format: cell-based, murine; details: 4 h, various concentrations
Experimental: Panel A is an image of an immunoblot showing BaF3/p210 cells were treated with various concentrations of TU46 for 4 h, and then whole cell lysates were blotted for K48-linked ubiquitin and tubulin. Panel B is an immunoblot showing same lysates as in Panel A were blotted for Bcr-Abl.
The K48-linked ubiquitin levels were also probed in these lysates. […] The increase in K48-linked ubiquitin coincided with the loss of Bcr-Abl (FIG. 8, Panel B). Since USP9x is known to deubiquitinate K48-linked polyubiquitin chains, it is possible that this increase in K48-linked ubiquitin is due to USP9x inhibition. See Park et al., PNAS 110, 9433-9438 (2013).

leukemic cell lines = assay: NCI-60 human tumor cell line screen; format: cell-based; details: 48 h treatment
Text: For example, a value of 100 means no growth inhibition and a value of 40 indicates 60% growth inhibition. A value of ‘0’ indicates complete growth inhibition.

SMILES	K48-linked ubiquitin level (K48-linked ubiquitin)	lethality in NCI-60 screen (leukemic cell lines)
CC(C)(C)OC(=O)NCCc1ccc(N=C=S)cc1 [TU46]	increases K48-linked ubiquitin	
CC(C)(C)OC(=O)NCc1cccc(N=C=S)c1 [TU50]		selective lethality against leukemic cell lines
